# Reference: paper PMC9841524, “Structure-Based Rational Design of Small α-Helical Peptides with Broad-Spectrum Activity against Multidrug-Resistant Pathogens” (Journal of Medicinal Chemistry, 2022)
# Where no end group is shown, it is not given here.
# Columns and labels:
# S. aureus (ATCC 29213) = assay: MIC, standard microtiter dilution (CLSI); type: cell-based; settings: broth microdilution (CLSI), CAMHB, 37 °C, 24 h
# Outline: (§1)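 Inoculum 10^6 CFU/mL in CAMHB against 2-fold peptide series; salt variants used 150 mM NaCl, 4.5 mM KCl, 6 mM NH4Cl, 1 mM MgCl2, 2 mM CaCl2, or 25% FBS.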
# MRSA (ATCC BAA-1556) = assay: Bactericidal kinetic assay; type: cell-based, methicillin-resistant S. aureus; settings: for killing of MRSA cells at 4 × MIC: after 4 h of incubation
# Procedure: The time course of bacterial killing was studied by the exposure of overnight grown cultures of MRSA (ATCC BAA-1556) and E. coli (ATCC BAA-2452) to 8a and 8b at the MIC and 4× the MIC in Muller Hinton media. Bacterial cells (2 × 10^6 CFU/mL) were treated with peptides and standard antibiotics and incubated at 37 °C. Aliquots were withdrawn at a 30 min time interval for 4 h and plated on the agar plate to determine the number of viable bacterial colonies. Data were obtained from two independent experiments performed in triplicate.
# [1] = Calcein dye leakage assay; settings: after 100 min, 10% Triton X-100 = 100%, triplicate
# Procedure: The calcein dye leakage assay was conducted using the large unilamellar vesicles (LUVs) composed of 1,2-dioleoyl-sn-glycero-3-phosphocholine (DOPC) and 1,2-dioleoyl-sn-glycero-3-phosphoglycerol (DOPG) to mimic the bacterial membrane (DOPC/DOPG, 7:3, w/w) or mammalian membrane (DOPC/cholesterol, 10:1, w/w), as we described previously.[18] At various concentrations (5, 10, 20, 30, and 50 μg/mL) test peptides 8a and 8b (50 μL) mixed with liposome suspension (50 μL), and fluorescence intensity was read every 10 min for 100 min at an excitation wavelength of 490 nm and an emission wavelength of 520 nm on a SpectraMax M5 multi-mode microplate reader. Considering calcein release from liposomes treated with a 10% solution (w/v) of Triton X-100 as 100%, the apparent percentage of dye leakage was calculated using the following formula [drawing 2] where F is the intensity measured at a given peptide concentration, F0 is the background intensity of the liposome sample, and Ft is the intensity after lysis induced by Triton X-100.
# E. faecium (ATCC 27270) = assay: microbe, parasite or virus in culture
# Procedure: (§2) Description of the characteristics and growth conditions of various bacterial strains used in the study are provided in the Supporting Information (Table S3). Antibacterial susceptibility testing was carried out using a standard microtiter dilution method recommended by the clinical and laboratory standard institute (CLSI) and measured as a minimum inhibitory concentration (MIC), the lowest peptide concentration that inhibited bacterial growth. Briefly, the overnight grown cultures in the recommended broth for each bacterial strain were diluted in cation-adjusted Mueller Hinton Broth (CAMHB) to give an inoculum of 10^6 colony-forming units (CFU)/mL. A 2-fold serially diluted test peptide solution (100 μL) was added to the microtiter plates. After adding bacterial suspension (100 μL), the plates were incubated at 37 °C for 24 h, and the MICs were determined. The same protocol was used to determine the MICs in the presence of salts and serum except using the media supplemented with various cationic salts (150 mM NaCl, 4.5 mM KCl, 6 mM NH4Cl, 1 mM MgCl2, and 2 mM CaCl2) or 25% FBS. The data was acquired from three independent assays performed in triplicate.
# (§3) The bacterial strains employed in this study were obtained from the American Type Culture Collection (ATCC). Each strain was propagated as recommended by the ATCC, and each strain was stored as a frozen glycerol stock at -80°C. A bacterial colony was grown on the appropriate agar as indicated in Table S1 and was used to inoculate the appropriate broth. The culture was incubated at the appropriate conditions, as mentioned in Table S1. Following the incubation, the culture was diluted to an optical density 625 nm (OD625) of 0.1 in cation adjusted Mueller Hinton Broth (CAMHB), which is equivalent to 1 × 10^8 CFU/mL. The culture was further diluted to 1 × 10^6 CFU/mL, which was used to conduct the MIC determination assay. For the S. pneumoniae strains, CAMHB + 2.5% lysed horse blood was required for the assay. The strains with their […]
# (§4) Table S3. Description of the characteristics and growth conditions of various bacterial strains
# E. faecalis (ATCC 51575) = assay: microbe, parasite or virus in culture; settings: Gram-positive, vancomycin-resistant; CLSI microdilution, CAMHB, 37 °C, 24 h; highest MIC of three independent experiments in triplicate
# Procedure: as §2, §3, §4
# E. faecium (ATCC 700221) = assay: microbe, parasite or virus in culture; settings: Gram-positive, vancomycin-resistant; CLSI microdilution, CAMHB, 37 °C, 24 h; highest MIC of three independent experiments in triplicate
# Procedure: as §2, §3, §4
# [2] = tested on: K. pneumoniae (ATCCBAA-1705); assay: MIC, standard microtiter dilution (CLSI); type: cell-based, Klebsiella pneumoniae; settings: broth microdilution (CLSI), CAMHB, 37 °C, 24 h
# Outline: as §1
# [3] = Relative hydrophobicity as RP-HPLC retention time; type: physicochemical; settings: chromatographic, Phenomenex Luna C18 4 μm 150 × 4.6 mm, linear AB gradient 1% acetonitrile/min, 0.3 mL/min, A water 0.1% TFA, B acetonitrile 0.1% TFA, 25 °C
# Procedure: The purity analysis of the peptides was conducted on a RP-HPLC system (Shimadzu; LC-20ADXR) by using a Phenomenex (Luna) analytical C18 column (4 μm, 150 × 4.6 mm). The mass of the purified peptides was determined in the positive-ion mode using Q-TOF LC/MS (Compass Hystar 4.1, Bruker, USA). The purity (>95%) and mass data of all the synthesized peptides are provided in the Supporting Information.
# 8. Comparative Hydrophobicity analysis
# The purity of all synthesized peptides was determined using reverse phase analytical HPLC
# (Shimadzu; LC-20ADXR). Below mentioned are the conditions used to conduct the purity
# Column: Phenomenex (Luna), 4 um, C18, 150 × 4.6 mm
# Mobile Phase: Buffer A-Water containing 0.1% TFA,
# Buffer B-Acetonitrile containing 0.1% TFA
# Figure S52. HPLC chromatogram of 6a.
# (1 picture or pasted object on this page, not shown here)
# [4] = 10^6 CFU/mL, highest MIC of three independent experiments in triplicate
# [5] = bacterial membrane mimicking LUVs
# [6] = mammalian membrane mimicking LUVs
molecule,measurement,setting,value
"CCCCCCCCCC(=O)N[C@@H](Cc1c[nH]c2ccccc12)C(=O)N[C@H](CC(N)=O)C(=O)N[C@@H](CC(=O)O)C(=O)N[C@@H]1C(=O)NCC(=O)N[C@@H](CCCN)C(=O)N[C@@H](CC(=O)O)C(=O)N[C@H](C)C(=O)N[C@@H](CC(=O)O)C(=O)NCC(=O)N[C@H](CO)C(=O)N[C@@H]([C@H](C)CC(=O)O)C(=O)N[C@@H](CC(=O)c2ccccc2N)C(=O)O[C@@H]1C [daptomycin, reference compound]","MIC, S. aureus (ATCC 29213)",S. aureus (ATCC 29213); [4],0.7 µg/mL
same,"MIC, S. aureus (ATCC 29213)",S. aureus (ATCC 29213); value in parentheses (μM),0.43 µM
same,time to complete killing of MRSA at 4 × MIC,MRSA (ATCC BAA-1556); 4 × MIC,3 h
same,"calcein dye leakage, 50 μg/mL",[1]; [5],42%
same,"calcein dye leakage, 50 μg/mL",[1]; [6],around 7%
same,"MIC, E. faecium (ATCC 27270)","E. faecium (ATCC 27270); Gram-positive, CLSI microdilution, CAMHB, 37 °C, 24 h, highest MIC of three independent experiments in triplicate",1.5 µg/mL
same,"MIC, E. faecalis (ATCC 51575)",E. faecalis (ATCC 51575),12.5 µg/mL
same,"MIC, E. faecium (ATCC 700221)",E. faecium (ATCC 700221),6.2 µg/mL
KWIKKWIKWWKK-NH2 [7b],"MIC, K. pneumoniae (ATCCBAA-1705)",[2]; [4],25 µg/mL
same,"MIC, K. pneumoniae (ATCCBAA-1705)",[2]; value in parentheses (μM),14.23 µM
same,"tR, RP-HPLC retention time (measure of overall hydrophobicity)",[3],32.23 min
same,"MIC, S. aureus (ATCC 29213)",S. aureus (ATCC 29213); [4],6.2 µg/mL
same,"MIC, S. aureus (ATCC 29213)",S. aureus (ATCC 29213); value in parentheses (μM),3.53 µM
same,"MIC, E. faecium (ATCC 27270)","E. faecium (ATCC 27270); ATCC 27270, 24 h",6.2 µg/mL
same,"MIC, E. faecalis (ATCC 51575)",E. faecalis (ATCC 51575),6.2 µg/mL
same,"MIC, E. faecium (ATCC 700221)",E. faecium (ATCC 700221),6.2 µg/mL
KWLKKWLKWWKK-NH2 [8b],"MIC, K. pneumoniae (ATCCBAA-1705)",[2]; [4],6.2 µg/mL
same,"MIC, K. pneumoniae (ATCCBAA-1705)",[2]; value in parentheses (μM),3.53 µM
same,"tR, RP-HPLC retention time (measure of overall hydrophobicity)",[3],33.41 min
same,"MIC, S. aureus (ATCC 29213)",S. aureus (ATCC 29213); [4],3.1 µg/mL
same,"MIC, S. aureus (ATCC 29213)",S. aureus (ATCC 29213); value in parentheses (μM),1.76 µM
same,killing of MRSA cells at 4 × MIC,MRSA (ATCC BAA-1556),completely eliminated
same,"calcein dye leakage, 5 μg/mL",[1]; [5],approximately 30%
same,"calcein dye leakage, 50 μg/mL",[1]; [6],10%
same,"MIC, E. faecium (ATCC 27270)","E. faecium (ATCC 27270); ATCC 27270, 24 h",3.1 µg/mL
same,"MIC, E. faecalis (ATCC 51575)",E. faecalis (ATCC 51575),6.2 µg/mL
same,"MIC, E. faecium (ATCC 700221)",E. faecium (ATCC 700221),3.1 µg/mL
RWIRRWIRWWRR-NH2 [7a],"MIC, K. pneumoniae (ATCCBAA-1705)",[2]; [4],12.5 µg/mL
same,"MIC, K. pneumoniae (ATCCBAA-1705)",[2]; value in parentheses (μM),6.49 µM
same,"tR, RP-HPLC retention time (measure of overall hydrophobicity)",[3],33.93 min
same,"MIC, S. aureus (ATCC 29213)",S. aureus (ATCC 29213); [4],6.2 µg/mL
same,"MIC, S. aureus (ATCC 29213)",S. aureus (ATCC 29213); value in parentheses (μM),3.22 µM
same,"MIC, E. faecium (ATCC 27270)","E. faecium (ATCC 27270); ATCC 27270, 24 h",6.2 µg/mL
same,"MIC, E. faecalis (ATCC 51575)",E. faecalis (ATCC 51575),12.5 µg/mL
same,"MIC, E. faecium (ATCC 700221)",E. faecium (ATCC 700221),6.2 µg/mL
RWLRRWLRWWRR-NH2 [8a],"MIC, K. pneumoniae (ATCCBAA-1705)",[2]; [4],12.5 µg/mL
same,"MIC, K. pneumoniae (ATCCBAA-1705)",[2]; value in parentheses (μM),6.49 µM
same,"tR, RP-HPLC retention time (measure of overall hydrophobicity)",[3],34.99 min
same,"MIC, S. aureus (ATCC 29213)",S. aureus (ATCC 29213); [4],6.2 µg/mL
same,"MIC, S. aureus (ATCC 29213)",S. aureus (ATCC 29213); value in parentheses (μM),3.22 µM
same,killing of MRSA cells at 4 × MIC,MRSA (ATCC BAA-1556),completely eliminated
same,"calcein dye leakage, 5 μg/mL",[1]; [5],approximately 30%
same,"calcein dye leakage, 50 μg/mL",[1]; [6],19%
same,"MIC, E. faecium (ATCC 27270)","E. faecium (ATCC 27270); ATCC 27270, 24 h",6.2 µg/mL
same,"MIC, E. faecalis (ATCC 51575)",E. faecalis (ATCC 51575),6.2 µg/mL
same,"MIC, E. faecium (ATCC 700221)",E. faecium (ATCC 700221),3.1 µg/mL
